Test [1] deals with T1, PfSpdS (Plasmodium falciparum, UniProt Q8II73). The experiment in a line: biochemical. It counts as binding. As to the method: Protein samples of 1 mg/ml were dialyzed overnight at 4°C against buffer containing 100 mM HEPES, pH 7.5, 250 mM NaCl. Protein concentration was determined by UV absorption (A280 = 1 for 1.3 mg/mL) immediately before loading into the calorimeter cell. […] The protein at a concentration of 0.8–30 μM was loaded into the sample cell of a VP-ITC microcalorimeter (MicroCal, Inc.). All measurements were performed at 25°C with 25 injections of the ligand of 10 μl each delivered in 20 s with 240 s delays between injections. […] Titrations of ligands into dialysis buffer were performed additionally and in case of non-negligible dilution heat the dilution profile(s) were subtracted point-by-point from the reaction profile. The dilution factor was taken into account for the binding curve fitting. Prior to titration of a second ligand into protein in presence of a first ligand, titration of dcAdoMet or MTA was carried out to saturating concentrations. […] The ligand- and buffer-subtracted integrated binding data were fitted using a single-site binding model in MicroCal Origin software.
T1 sequence (Q8II73 entry or part of it): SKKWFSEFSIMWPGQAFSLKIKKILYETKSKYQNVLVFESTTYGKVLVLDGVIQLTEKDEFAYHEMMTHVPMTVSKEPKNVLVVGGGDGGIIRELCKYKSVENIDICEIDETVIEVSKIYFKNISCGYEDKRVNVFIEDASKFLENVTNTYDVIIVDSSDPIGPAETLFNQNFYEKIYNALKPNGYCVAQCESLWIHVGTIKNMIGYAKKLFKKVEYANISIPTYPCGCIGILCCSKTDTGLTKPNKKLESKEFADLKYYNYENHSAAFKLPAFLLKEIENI
The solution conditions for which the reported parameter values apply are 100 mM HEPES pH 7.5, 250 mM NaCl, 25°C.

The target in test [2] is T1, PfSpdS. The note with it: cited from earlier work.
Test [3] has as its target T1, PfSpdS. The experiment in a line: biochemical. The note with it: for inhibitory effects on PfSpdS activity: at concentrations of 0.1 or 1 mM, data not shown. Here is the method: The enzyme assays were incubated for 30 min at 37°C and terminated by addition of 100 μl of 0.4 M HClO4. The amount of spermidine formed was determined by HPLC with θ-phthaldialdehyde as the reagent essentially as described by Seiler & Knödgen.
Determination of IC50 values was performed in standard assays containing increasing concentrations of inhibitors.

For test [4], the system named is mammalian SpdS. The note with it: cited from earlier work.
The subject of test [5] is P. falciparum. More on the design: method as in PMID 15913804. The note with it: at micromolar concentrations; cited from earlier work.
In test [6] the target is T1, PfSpdS. More on the design: method as in PMID 18410081. The note with it: cited from earlier work.
Test [7] addresses human SpdS. More on the design: method as in PMID 21898642. The note with it: 20 mM sodium phosphate pH 7.5, 50 mM NaCl, 25°C; cited from earlier work.
[8] abbreviates: free PfSpdS, 100 mM HEPES pH 7.5, 250 mM NaCl, 25°C.
The mark [9] stands for this setting: free PfSpdS, 100 mM HEPES pH 7.5, 250 mM NaCl, 25°C, read-out: KD.
Setting [10] is: PfSpdS saturated with MTA (ligand 1), values for ligand 2.
The mark [11] stands for this setting: PfSpdS saturated with MTA (ligand 1), values for ligand 2, read-out: KD.
Setting [12] is: KD, PfSpdS saturated with MTA (ligand 1), values for ligand 2.
The mark [13] stands for this setting: KD, free PfSpdS, 100 mM HEPES pH 7.5, 250 mM NaCl, 25°C.
The mark [14] stands for this setting: free PfSpdS, listed as with footnote mark a.
Where [15] appears, read: free PfSpdS, listed as with footnote mark b: fit was done setting N = 1.

“And” between values parts separate entries of the source, which are not always exact repeats. Identical values can stand only once. Like-named read-outs stand apart in the source and are kept apart here. Where only a bound is given, the exact number is not on record here.

In test [1] (setting [8]), 5′-methylthioadenosine [MTA] gave a ΔH of -2.7 ± 0.3 kcal/mol and a ΔS of 18.6 cal/mol/deg. Also, the Kd – broadly, the concentration at which binding is half-saturated – in test [1] (setting [9]) stood at 0.9 ± 0.5 µM. Also, in test [2] (100 μM dcAdoMet, 200 μM putrescine), the IC50 (commonly the concentration that gives 50% inhibition) is 160 µM and 159 µM. Besides, the Inhibition type entry in test [2] is given as “product inhibition”.

`NCc1ccc(N)cc1` [4AMA, 4-aminomethylaniline]: the “inhibitory effects on PfSpdS activity” value in test [3] was “no or only minor inhibitory effects”. Besides, the IC50 in test [3] (read-out: IC50) was greater than 1000 µM. Besides, the “affinity for free PfSpdS (in words)” value in test [1] is “no measurable affinity”. This molecule also returned a ΔH in test [1] (setting [10]) of -3.5 ± 0.2 kcal/mol. Moreover, the ΔS in test [1] (setting [10]) is 7.84 cal/mol/deg. For the same molecule, the Kd in test [1] (setting [11]) was 45.3 ± 5.1 µM; in test [1] (PfSpdS saturated with dcAdoMet (ligand 1), values for ligand 2, read-out: KD), greater than 300 µM; in test [1] (setting [9]), greater than 300 µM.

Consider `Cc1ccc(N)cc1` [4MAN, 4-methylaniline], for which the values for the IC50 in test [3] and in test [4] were 23 µM and 108 µM, respectively. In test [3], affinity was put at a Ki of 8.2 µM. In addition, in test [3] (Lineweaver-Burke plots, 0.1 mM dcAdoMet), the Inhibition type result was “competitive with putrescine”. In test [1], the “affinity for free PfSpdS (in words)” value was “no measurable affinity”. Moreover, the Kd in test [1] (setting [12]) was greater than 300 µM; in test [1] (KD, PfSpdS saturated with dcAdoMet (ligand 1), values for ligand 2), 7.7 ± 1.2 µM; in test [1] (setting [13]), greater than 300 µM. Further, the “affinity to PfSpdS in presence of MTA (in words)” value in test [1] (PfSpdS saturated with MTA, detection limit KD ~ 300 μM) is recorded as “no detectable affinity”.

With `C[C@H]1CC[C@H](N)CC1` [4MCHA, trans-4-methylcyclohexylamine], in test [2], the Inhibition type entry is recorded as “competitive inhibitor with respect to putrescine” and the Ki (as a rule, a measure of affinity in units of concentration, obtained from inhibition or displacement) is 180 nM. The “inhibition of P. falciparum cell growth in vitro (in words)” value in test [5] is reported as “strongly inhibit”.

Turning to `NCCCCCC(CCN)SCC1OC(n2cnc3c(N)ncnc32)C(O)C1O` (stereo not drawn) [AdoDATO, S-adenosyl-3-thio-1,8-diaminooctane], in test [3], the Inhibition type entry is “mixed-type inhibition with putrescine” and the Ki uncompetitive was found to be 12.2 µM. For the same molecule, the Ki in test [3] (read-out: Ki competitive) is 3.4 µM. Moreover, the IC50 in test [3] (read-out: predicted IC50 from Eq (2)) is 10 µM. Further, in test [1] (setting [8]), the ΔH is listed as -5.5 ± 0.2 kcal/mol and the ΔS came out at 6.9 cal/mol/deg. Besides, in test [1] (setting [9]), the Kd was found to be 2.8 ± 0.5 µM.

For `NCCCCCc1nc2ccccc2[nH]1` [BIPA, 5-(1H-benzimidazol-2-yl)pentan-1-amine], the IC50 in test [3] (PfSpdS assays, L. Persson, unpublished results, read-out: IC50) was greater than 100 µM. Moreover, the “inhibitory effects on PfSpdS activity” value in test [3] is “no or only minor inhibitory effects”. The IC50 in test [3] (read-out: IC50) is greater than 1000 µM. In test [1] (setting [8]), this molecule yielded a ΔH of 1.5 ± 0.3 kcal/mol and a ΔS of 27.1 cal/mol/deg. For the same molecule, the Kd in test [1] (setting [9]) is 15.2 ± 8.2 µM. In addition, in test [6], the “binding to the enzyme by NMR spectroscopy (in words)” value is on record as “bind strongly”.

As for `NCCCN[C@H]1CC[C@H](N)CC1` [NACD], the results for the ΔH in test [1] (setting [10]), in test [1] (setting [14]) and in test [1] (setting [15]) were -0.6 ± 0.1 kcal/mol, 51.8 ± 2.5 kcal/mol and 17.6 ± 9.0 kcal/mol, respectively. Moreover, the ΔS in test [1] (setting [10]) worked out at 28.4 cal/mol/deg; in test [1] (setting [14]) it was 196 cal/mol/deg; in test [1] (setting [15]), 82.8 cal/mol/deg. For the same molecule, the Kd in test [1] (setting [11]) is ~0.3 µM and 0.3 µM; in test [1] (free PfSpdS, listed as with footnote mark a, read-out: KD), 8.4 ± 0.7 µM; in test [1] (free PfSpdS, listed as with footnote mark b: fit was done setting N = 1, read-out: KD), 6.1 ± 1.6 µM.

The molecule `NCCCCN` [Putrescine, putrescine] came in with a Kd in test [1] (setting [12]) of 59.5 ± 8.2 µM. The molecule also had a dissociation constant (Kd) in test [1] (setting [13]) greater than 300 µM. In test [1] (setting [10]), this molecule showed a ΔH of -12.4 ± 0.9 kcal/mol and a ΔS of -22.4 cal/mol/deg. In test [1] (free PfSpdS, detection limit KD ~ 300 μM), the “affinity for free PfSpdS (in words)” value was “no measurable affinity”. Besides, the Km (commonly the concentration of substrate that gives half-maximal velocity) in test [2] (read-out: Km for putrescine, 29-residue-truncated PfSpdS) is 52 µM.

In the case of `NCCCCNCCCN` [Spermidine, spermidine], in test [1], the “affinity for free PfSpdS (in words)” value is listed as “no measurable affinity”. This molecule had a Kd in test [1] (setting [12]) of 1.2 ± 0.3 µM. The molecule also gave a Kd in test [1] (setting [13]) greater than 300 µM. In test [1] (setting [10]), this molecule came in with a ΔH of -6.1 ± 0.3 kcal/mol and a ΔS of 6.74 cal/mol/deg.

Take `C[S+](CCCN)CC1OC(n2cnc3c(N)ncnc32)C(O)C1O` (stereo not drawn) [dcAdoMet, decarboxylated S-adenosylmethionine]: the Kd in test [1] (setting [13]) was 3.7 ± 0.7 µM. In test [1] (setting [8]), the ΔH is on record as -2.4 ± 0.2 kcal/mol and the ΔS is 16.7 cal/mol/deg.

On to `NCCCSC[C@H]1O[C@@H](n2cnc3c(N)ncnc32)[C@H](O)[C@@H]1O` [decarboxylated S-adenosylhomocysteine], for which, in test [7], the Kd is 1100 nM.

The values above are taken from PMC5035006, “Binding and Inhibition of Spermidine Synthase from Plasmodium falciparum and Implications for In Vitro Inhibitor Testing” (PLoS ONE, 2016).
